Reference: patent publication US11052063B2, “Methods of reducing RLP-C” (Amarin Pharmaceuticals Ireland Limited, priority 2014, dated 2021)

Tested on: Serum RLP-C
Assay: 12-week placebo-controlled study (MARINE), serum RLP-C by immunoseparation assay, patients with fasting TG ≥500 mg/dL
Assay type: in vivo, human
Conditions: for Median Change from Baseline in RLP-C vs. Placebo: Hodges-Lehmann estimate; for Median Change from Baseline in RLP-C vs. Placebo / RLP-C Concentration End of Treatment: week 12; for RLP-C Concentration Change: median change from baseline to week 12; for RLP-C Concentration Baseline / RLP-C Concentration End of Treatment: median; for RLP-C Concentration Baseline: before treatment
Method: A multi-center, placebo-controlled randomized, double-blind, 12-week study with an open-label extension was performed to evaluate the efficacy and safety of AMR101 in patients with fasting triglyceride levels≥500 mg/dL. The primary objective of the study was to determine the efficacy of >96%, by weight of all fatty acids present, ethyl-EPA (“AMR101”) 2 g daily and 4 g daily, compared to placebo, in lowering fasting TG levels in patients with fasting TG levels≥500 mg/dL and ≤1500 mg/dL (≥5.65 mmol/L and ≤16.94 mmol/L). The population for this study was men and women (women of childbearing potential needed to be on contraception or practice abstinence) >18 years of age with a body mass index≤45 kg/m^2 who were not on lipid-altering therapy or were not currently on lipid-altering therapy. Patients currently on statin therapy (with or without ezetimibe) were evaluated by the investigator as to whether this therapy could be safely discontinued at screening, or if it should have been continued. If statin therapy (with or without ezetimibe) was to be continued, dose(s) must have been stable for ≥4 weeks prior to randomization. Patients taking non-statin, lipid-altering medications (niacin>200 mg/day, fibrates, fish oil, other products containing omega-3 fatty acids, or other herbal products or dietary supplements with potential lipid-altering effects), either alone or in combination with statin therapy (with or without ezetimibe), must have been able to safely discontinue non-statin, lipid-altering therapy at screening. Approximately 240 patients were randomized at approximately 50 centers in North America, South America, Central America, Europe, India, and South Africa. The study was a 58- to 60-week, Phase 3, multi-center study consisting of 3 study periods: (1) a 6- to 8-week screening period that included a diet and lifestyle stabilization and washout period and a TG qualifying period; (2) a 12-week, double-blind, randomized, placebo-controlled treatment period; and (3) a 40-week, open-label, extension period. After confirmation of qualifying fasting TG values, eligible patients entered a 12-week, randomized, double-blind treatment period. At Visit 4 (Week 0), patients were randomly assigned to one of the following treatment groups: • AMR101 2 g daily, • AMR101 4 g daily, or • Placebo. Eligible patients were randomly assigned at Visit 4 (Week 0) to orally receive AMR101 2 g daily, AMR101 4 g daily, or placebo for the 12-week double-blind treatment period. AMR101 was provided in 1 g liquid-filled, oblong, gelatin capsules. The matching placebo capsule was filled with light liquid paraffin and contained 0 g of AMR101. During the double-blind treatment period, patients took 2 capsules (AMR101 or matching placebo) in the morning and 2 in the evening for a total of 4 capsules per day. Patients in the AMR101 2 g/day treatment group received 1 AMR101 1 g capsule and 1 matching placebo capsule in the morning and in the evening. Patients in the AMR101 4 g/day treatment group received 2 AMR101 1 g capsules in the morning and evening. The primary efficacy variable for the double-blind treatment period was percent change in TG from baseline to Week 12 endpoint. […]

[1] = 2 g/day, Baseline TG >750 mg/dl
[2] = 2 g/day, Baseline TG ≤750 mg/dl
[3] = 4 g/day, Baseline TG >750 mg/dl
[4] = 4 g/day, Baseline TG ≤750 mg/dl

`CC/C=C\C/C=C\C/C=C\C/C=C\C/C=C\CCCC(=O)OCC` [AMR101, ethyl-EPA] was tested, and the “RLP-C compared to placebo” value (2 g/day treatment group, 12 weeks) was “reduced RLP-C compared to placebo”, the “Median Change from Baseline in RLP-C vs. Placebo” value (“Median Change from Baseline” for short) [1] was −25.4% and the “RLP-C Concentration Change” value [1] was −10.7%. For the same molecule, the “RLP-C Concentration Baseline” value [1] was 66.0 mg/dL, the “RLP-C Concentration End of Treatment” value [1] was 65.0 mg/dL and the “Median Change from Baseline” value [2] was −7.3%. For the same molecule, the “RLP-C Concentration Change” value [2] was 18.2%, the “RLP-C Concentration Baseline” value [2] was 27.5 mg/dL and the “RLP-C Concentration End of Treatment” value [2] was 32.5 mg/dL. The “Median Change from Baseline” value (2 g/day, ITT) was −14.9%, the “RLP-C Concentration Change” value (2 g/day, ITT) was 5.8% and the “RLP-C Concentration Baseline” value (2 g/day, ITT) was 43.0 mg/dL. For the same molecule, the “RLP-C Concentration End of Treatment” value (2 g/day, ITT) was 44.5 mg/dL, the “Median Change from Baseline” value (2 g/day, No Statin Use) was −8.5% and the “RLP-C Concentration Change” value (2 g/day, No Statin Use) was 3.0%. The “RLP-C Concentration Baseline” value (2 g/day, No Statin Use) was 45.0 mg/dL, the “RLP-C Concentration End of Treatment” value (2 g/day, No Statin Use) was 44.5 mg/dL and the “Median Change from Baseline” value (2 g/day, With Statin Use) was −41.6%. The “RLP-C Concentration Change” value (2 g/day, With Statin Use) was 29.2%, the “RLP-C Concentration Baseline” value (2 g/day, With Statin Use) was 31.5 mg/dL and the “RLP-C Concentration End of Treatment” value (2 g/day, With Statin Use) was 46.5 mg/dL. The “median placebo-adjusted reductions in RLP-C” value (4 g/day treatment group, 12 weeks, p=0.0041, stated as reduction) was 29.8%, the “reductions in RLP-C compared to baseline” value (4 g/day treatment group, 12 weeks, stated as reduction) was 16.1% and the “Median Change from Baseline” value [3] was −37.5%. For the same molecule, the “RLP-C Concentration Change” value [3] was −25.4%, the “RLP-C Concentration Baseline” value [3] was 89.5 mg/dL and the “RLP-C Concentration End of Treatment” value [3] was 68.5 mg/dL. The “Median Change from Baseline” value [4] was −26.1%, the “RLP-C Concentration Change” value [4] was −8.8% and the “RLP-C Concentration Baseline” value [4] was 34.0 mg/dL. The “RLP-C Concentration End of Treatment” value [4] was 29.0 mg/dL, the “Median Change from Baseline” value (4 g/day, ITT) was −29.8% and the “RLP-C Concentration Change” value (4 g/day, ITT) was −16.1%. The “RLP-C Concentration Baseline” value (4 g/day, ITT) was 45.0 mg/dL, the “RLP-C Concentration End of Treatment” value (4 g/day, ITT) was 38.0 mg/dL and the “Median Change from Baseline” value (4 g/day, No Statin Use) was −21.4%. The “RLP-C Concentration Change” value (4 g/day, No Statin Use) was −16.6%, the “RLP-C Concentration Baseline” value (4 g/day, No Statin Use) was 45.0 mg/dL and the “RLP-C Concentration End of Treatment” value (4 g/day, No Statin Use) was 39.5 mg/dL. The “Median Change from Baseline” value (4 g/day, With Statin Use) was −56.8%, the “RLP-C Concentration Change” value (4 g/day, With Statin Use) was −16.1% and the “RLP-C Concentration Baseline” value (4 g/day, With Statin Use) was 37.0 mg/dL. For the same molecule, the “RLP-C Concentration End of Treatment” value (4 g/day, With Statin Use) was 33.0 mg/dL.
